From patent publication US20140348850A1, “METHOD FOR REDUCING BLOOD PRESSURE USING INHIBITORS OF PLASMA KALLIKREIN” (JOSLIN DIABETES CENTER, priority 2008, published 2014)

What was measured:
[1] = test system: retinal vasculature of diabetic rats; test: Retinal vessel diameters, mean circulation time and retinal blood flow in STZ-diabetic rats (video fluorescein angiography); format: in vivo, Sprague Dawley rats
Description: FIGS. 2A and 2B are graphs showing normalized retinal blood flow (FIG. 2A) and increased blood vessel diameter (FIG. 2B) following ASP-440 administration in diabetic rats.
We examined the effect of ASP-440 on retinal vessel diameters, mean circulation times (MCT), and retinal blood flow (RBF) in rats with diabetes. Diabetes was induced in Sprague Dawley rats with an intraperitoneal injection of 55 mg/kg of streptozotocin (STZ) (Sigma, St. Louis, Mo., USA) in 10 mmol/l citrate buffer, pH 4.5 after a 12 h fast. Diabetes was confirmed with blood glucose measurements (>14 mmol/l) 24 h after STZ injection. The rats were housed under standard conditions with free access to water and standard food. Two weeks after diabetes onset rats were implanted with a subcutaneous osmotic model 2002 Alzet pump containing either 12 mg/ml ASP-440 or saline vehicle. Rats were infused for 2 weeks at a rate of 0.5 μg/hr. Retinal vessel diameters and MCT was measured after 4 weeks of total diabetes duration and RBF was calculated as described by Horio et al. (Diabetologia 47:113-23, 2004).
To make the measurements described above, the following procedure was used. […] The recorded fluorescein angiograms were digitized on a frame-by-frame basis and analyzed densitometrically to determine retinal vessel diameters and retinal mean circulation times (MCTs), as described by Horio et al. (supra). […] Vessel diameters in units of pixels were determined during peak fluorescein arterial and venous filling times at the defined vessel sample sites using a boundary-crossing algorithm. The average diameter for each vessel was measured for each sample site. […] At the fixed vessel sites, the average vessel fluorescence within a sample area defined by the vessel width was measured on a frame-by-frame basis to generate temporal fluorescence intensity or dye dilution curves. The resultant artery and vein fluorescence data were fit to a log normal distribution function from which average arterial and venous circulation times were calculated. […]

[2] = test system: Ang-II-induced hypertension; test: BP-lowering effect in Ang-II-induced rat hypertension model (telemetry); format: in vivo; details: rats infused with Ang-II 300 ng/kg/min; ASP-440 16 ƒg/kg/hr by subcutaneous osmotic pump; vs Ang-II alone
Excerpt: FIG. 1 is a graph showing the time course of systolic blood pressure (SBP) measured using telemetry in rats infused with Ang-II in the absence or presence of ASP-440. * and † indicate p<0.05 for Day 0 vs Ang-II alone (n=4) and Ang-II+ASP-440 (n=7), respectively. ‡ indicates p<0.05 for Ang-II alone vs Ang-Il^+ ASP-440. NS indicates statistically non-significant change from Day 0.
Rats were infused continuously with Ang-II, and concurrently with either ASP-440 or vehicle control. Treatments were achieved by the use of subcutaneous implantation of two sets of Alzet mini-osmotic pumps (DURECT corporation, Cupertino Calif.), one containing Ang-II, the other containing either ASP-440 or vehicle control. Angll (EMD Chemicals Inc, La Jolla, Calif.) was delivered at 300 ng/kg/min. ASP-440 was delivered at 16 ƒg/kg/hr, and control pumps were filled with vehicle (10% polyethylene glycol, 90% phosphate-buffered saline).
Blood pressure measurements by telemetry were performed using PA-C40 transmitters (Data Sciences International, St. Paul, Minn.). […] Rats were housed individually on a receiver pad and blood pressure was monitored continuously. […] Baseline readings (Day 0) were obtained 48 hours after catheter implantation, following implantation of Alzet mini-pumps.

[3] = 2 weeks subcutaneous pump infusion (12 mg/ml ASP-440), vs diabetic rats receiving vehicle

## N=C(N)c1ccc(CNC(=O)c2cnn(Cc3ccccc3)c2)cc1 [ASP-440, 1-Benzyl-1H-pyrazole-4-carboxylic acid 4-carbamimidoyl-benzylamide]
[1]; [3]
  retinal blood flow (RBF): increased RBF
  retinal mean circulation time (MCT): shortened MCT
[1]; 2 weeks subcutaneous pump infusion, vs nondiabetic rats and saline-treated diabetic rats
  retinal artery and vein diameters: increased retinal artery and vein diameters
[2]
  blood pressure (systolic, telemetry): capable of reducing blood pressure
